From patent US10406091B2, “Skin anti-ageing composition” (Conopco, Inc., priority 2011, dated 2019)

Tested on: interleukin 8 (IL-8)
Test: IL-8 ELISA on supernatant of TNF alpha-challenged primary epidermal keratinocytes pre-treated with actives
Type: cell-based, human
Settings: 24 h pre-treatment, then 10 ng/ml TNF alpha 24 h
Experimental: An in-vitro model has been developed to investigate the impact of an inflammatory stimulus on epidmeral keratinocytes, in which: • a. Cells are grown in 24-well (2.0 cm^2) plates. • b. The cells are pre-treated with active ingredient of interest for 24 hours then challenged with an inflammatory stimulus, 10 ng/ml tumour necrosis factor alpha (TNFa) in addition to the active ingredient, for a further 24 hours. • c. Cell culture supernatant and cell lysates were harvested at 24 hours (t24) post-TNFa treatment. • d. All cell culture supernatant was assayed for IL-8 as a measure of inflammatory response and cell culture lysate was assayed for total protein (BCA), as a measure of cytotoxicity.
Primary human epidermal keratinocyte cells were cultured and passaged in fully supplemented KGM-Gold media (Lonza) with 70 μM calcium added. Cells were routinely plated out in 24-well tissue culture dishes, at a seeding density of ˜50,000 cells/well in 1 ml medium/well for 24 hours, and incubated at 37° C. in 5% CO2.
Test solutions were prepared in KGM-Gold media without supplemented hydrocortisone and antibiotic. Media was removed from the cells and test solutions were added for 24 hours. The epidermal keratinocytes were then stimulated with an inflammatory challenge for 24 hours using 10 ng/ml TNFa in the presence of the test solutions. The treated supernatant (cell culture supernatant) was removed and stored at −20° C. prior to IL-8 analysis.
The epidermal keratinocytes were washed with 1 ml of Dulbecco's phosphated buffer solution (PBS) and 250 μl of ice cold lysis buffer (1% NP-40, 0.1% sodium deoxycholate, 0.1% sodium dodecyl sulphate, 6 mM sodium chloride and 0.05 M Tris at pH 7.6) containing protease inhibitor cocktail (Roche, Complete™ mini tablets 1 836 170) was added. The lysates were clarified by scraping the samples with a 1 ml syringe plunger and passing through an Acrowell™ filter plate (Pall) using an Acroprep™ vacuum manifold (Pall) into a 96 well microwell plate (Sterilin). The clarified lysates were stored at −20° C. until total protein estimation.
The total protein concentration of each clarified cell lysate was measured using the Pierce BCA protein assay kit so that the response to effect of the test substances could be normalised to ug protein. A set of eight standard solutions ranging from 0 to 1200 μg/ml protein was prepared from the supplied 2 mg/ml bovine serum albumin (BSA) stock solution. 10 μl of standard or cell lysate was added to duplicate wells of a flat-bottomed 96-well plate. The reagent solution was prepared according to the kit instructions from 50 parts reagent A and 1 part reagent B. 200 μl of the final reagent was added to each well. The plate was mixed, covered and incubated at 37° C. for 30 minutes and absorbance read at 562 nm. A protein standard curve was constructed and used to determine the protein concentration of each cell lysate.
The IL-8 concentration of each cell culture supernatant was assayed using the DuoSet Human IL-8 ELISA assay (R&D Systems DY208) according to the manufacturer's instructions. The IL-8 capture antibody was bound to the microtitre plate (Greiner) overnight at room temperature in phosphate buffered saline and removed by washing three times was wash buffer (0.05% Tween 20 in PBS) on an automatic plate washer. The plate was blocked with 300 μl of 1% bovine serum albumin (BSA) in phosphate buffered saline for 1 hour at room temperature and washed 3 times in wash buffer. Seven IL-8 standards were prepared in reagent diluent (0.1% BSA, 0.05% Tween 20 in PBS) at concentrations ranging from […]. 100 μl of cell culture supernatant or standard was added to duplicate wells and incubated at room temperature for 2 hours. The plate was washed 3 times with wash buffer before 100 μl of IL-8 detection antibody diluted in reagent diluent was added and incubated for 2 hours at room temperature. […]

Compound	IL-8 (pg/μg protein) (sterol alone 1 uM)	IL-8 (pg/μg protein) (sterol alone 5 uM)	IL-8 (pg/μg protein) (sterol alone 10 uM)	IL-8 (pg/μg protein) (myricetin alone 0.5 ug/ml)	IL-8 (pg/μg protein) (myricetin alone 1 ug/ml)	IL-8 (pg/μg protein) (myricetin alone 2.5 ug/ml)
CC(C)[C@@H](C)/C=C/[C@@H](C)[C@H]1CC[C@H]2[C@@H]3CC=C4C[C@@H](O)CC[C@]4(C)[C@H]3CC[C@]12C [Brassicasterol]	3.394	4.448	4.862			
CC(C)=CCC[C@@H](C)[C@H]1CC[C@H]2[C@@H]3CC=C4C[C@@H](O)CC[C@]4(C)[C@H]3CC[C@]12C [Desmosterol]	4.756	4.799	4.711			
O=c1c(O)c(-c2cc(O)c(O)c(O)c2)oc2cc(O)cc(O)c12 [Myricetin]				3.874	2.741	1.784
CC[C@H](/C=C/[C@@H](C)[C@H]1CC[C@H]2[C@@H]3CC=C4C[C@@H](O)CC[C@]4(C)[C@H]3CC[C@]12C)C(C)C [Stigmasterol]	4.638	3.87	4.964			
